From ChEMBL document CHEMBL2429867, “Generation by mutasynthesis of potential neuroprotectant derivatives of the bipyridyl collismycin A” (2013)

Species: Danio rerio
Test: Neuroprotective activity in 3 days postfertilized zebrafish larvae assessed as reduction of all-trans retinoic acid-induced apoptosis at 1 uM after 24 hrs by fluorescence microscopy
Format: functional
Design: scale not given: the % may be the effect or the level left
`COc1cc(-c2cccc(C)n2)nc(/C=N/O)c1SC` showed an Activity of 40%. Work on `COc1cc(-c2cc(C)ccn2)nc(/C=N/O)c1SC` yielded an Activity of 70%. `O=C(O)CCCCC1CCSS1` (stereo not drawn) [LIPOIC ACID, ALPHA] showed an Activity of 61%.
